Target: Adenosine receptor A1 (Mesocricetus auratus)
Assay: Inhibition of specific binding of [3H]CPX to the A1 adenosine receptor in DDT1 MF-2 (DDT) cells.

Structure (SMILES) | IC50
CCCn1c(=O)c2[nH]c(CCCCCN3C(=O)C=CC3=O)nc2n(CCC)c1=O [8-[5-(2,5-Dioxo-2,5-dihydro-pyrrol-1-yl)-pentyl]-1,3-dipropyl-3,7-dihydro-purine-2,6-dione] | 2.2 µM
CCCn1c(=O)c2[nH]c(CNC(=O)CBr)nc2n(CCC)c1=O [2-Bromo-N-(2,6-dioxo-1,3-dipropyl-2,3,6,7-tetrahydro-1H-purin-8-ylmethyl)-acetamide] | 11 µM
CCCn1c(=O)c2[nH]c(CCNC(=O)c3ccc(S(=O)(=O)F)cc3)nc2n(CCC)c1=O [4-[2-(2,6-Dioxo-1,3-dipropyl-2,3,6,7-tetrahydro-1H-purin-8-yl)-ethylcarbamoyl]-benzenesulfonyl fluoride] | 0.7 µM
CCCn1c(=O)c2[nH]c(NC(=O)c3cccc(S(=O)(=O)F)c3)nc2n(CCC)c1=O [3-(2,6-Dioxo-1,3-dipropyl-2,3,6,7-tetrahydro-1H-purin-8-ylcarbamoyl)-benzenesulfonyl fluoride] | 3.5 µM
CCCn1c(=O)c2[nH]c(C3CCC(OC(=O)c4ccc(S(=O)(=O)F)cc4)C3)nc2n(CCC)c1=O (centres undefined) [4-Fluorosulfonyl-benzoic acid 3-(2,6-dioxo-1,3-dipropyl-2,3,6,7-tetrahydro-1H-purin-8-yl)-cyclopentyl ester] | 0.06 µM
O=C(OCCCn1c(=O)c2[nH]c(C3CCCC3)nc2n(CCCOC(=O)c2ccc(S(=O)(=O)F)cc2)c1=O)c1ccc(S(=O)(=O)F)cc1 [8-cyclopentyl-1,3-di[3-(4-fluorosulfonylphenylcarbonyloxy)propyl]-2,6-dioxo-2,3,6,7-tetrahydro-1H-purine] | 3.5 µM
CCCn1c(=O)c2[nH]c(CNC(=O)c3ccccc3)nc2n(CCC)c1=O [N-(2,6-Dioxo-1,3-dipropyl-2,3,6,7-tetrahydro-1H-purin-8-ylmethyl)-benzamide] | 6.3 µM
CCCn1c(=O)c2[nH]c(CNC(=O)c3ccc(S(=O)(=O)F)cc3)nc2n(CCC)c1=O [4-[(2,6-Dioxo-1,3-dipropyl-2,3,6,7-tetrahydro-1H-purin-8-ylmethyl)-carbamoyl]-benzenesulfonyl fluoride] | 2 µM
CCCn1c(=O)c2[nH]c(CCNC(=O)CBr)nc2n(CCC)c1=O [2-Bromo-N-[2-(2,6-dioxo-1,3-dipropyl-2,3,6,7-tetrahydro-1H-purin-8-yl)-ethyl]-acetamide] | 4 µM
CCCn1c(=O)c2[nH]c(NC(=O)c3ccc(S(=O)(=O)F)cc3)nc2n(CCC)c1=O [4-(2,6-Dioxo-1,3-dipropyl-2,3,6,7-tetrahydro-1H-purin-8-ylcarbamoyl)-benzenesulfonyl fluoride] | 4.2 µM
CCCn1c(=O)c2[nH]c(CCCNC(=O)c3cccc(S(=O)(=O)F)c3)nc2n(CCC)c1=O [3-[3-(2,6-Dioxo-1,3-dipropyl-2,3,6,7-tetrahydro-1H-purin-8-yl)-propylcarbamoyl]-benzenesulfonyl fluoride] | 2.6 µM
CCCn1c(=O)c2[nH]c(C3CCCC3)nc2n(CCCOC(=O)c2cccc(S(=O)(=O)F)c2)c1=O [3-Fluorosulfonyl-benzoic acid 3-(8-cyclopentyl-2,6-dioxo-1-propyl-1,2,6,7-tetrahydro-purin-3-yl)-propyl ester] | 0.02 µM
CCCn1c(=O)c2[nH]c(-c3ccc(Cl)c([N+](=O)[O-])c3)nc2n(CCC)c1=O [8-(4-Chloro-3-nitro-phenyl)-1,3-dipropyl-3,7-dihydro-purine-2,6-dione] | 7 µM
CCCn1c(=O)c2[nH]c(CCCCCNC(=O)CBr)nc2n(CCC)c1=O [2-Bromo-N-[5-(2,6-dioxo-1,3-dipropyl-2,3,6,7-tetrahydro-1H-purin-8-yl)-pentyl]-acetamide] | 1.2 µM

— BindingDB's records for doi:10.1021/jm00043a010 (University of South Florida, 1994)
